SMILES strings stand for the structures.

This experiment addresses T1, PPARγ-RXRα heterodimer (Homo sapiens, UniProt P37231).
T1 construct: expressed in transfected cells; host or cells: CHO-K1
T1 sequence (P37231 1-505): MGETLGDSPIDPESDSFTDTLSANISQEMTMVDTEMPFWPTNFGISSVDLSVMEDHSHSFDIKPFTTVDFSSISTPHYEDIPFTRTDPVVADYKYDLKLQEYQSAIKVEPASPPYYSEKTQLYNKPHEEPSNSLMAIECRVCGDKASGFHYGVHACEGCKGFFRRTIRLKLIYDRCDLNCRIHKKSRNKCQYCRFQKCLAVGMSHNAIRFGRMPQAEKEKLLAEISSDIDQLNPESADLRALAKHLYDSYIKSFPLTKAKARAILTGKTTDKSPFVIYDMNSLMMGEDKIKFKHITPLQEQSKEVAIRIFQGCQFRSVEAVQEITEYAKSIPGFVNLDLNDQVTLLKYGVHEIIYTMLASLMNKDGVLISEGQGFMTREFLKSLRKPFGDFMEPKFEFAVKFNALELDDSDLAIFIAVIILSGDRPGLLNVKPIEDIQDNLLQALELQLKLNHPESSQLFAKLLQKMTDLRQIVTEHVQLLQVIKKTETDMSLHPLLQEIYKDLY
T1 sequence (P19793 1-462 partner): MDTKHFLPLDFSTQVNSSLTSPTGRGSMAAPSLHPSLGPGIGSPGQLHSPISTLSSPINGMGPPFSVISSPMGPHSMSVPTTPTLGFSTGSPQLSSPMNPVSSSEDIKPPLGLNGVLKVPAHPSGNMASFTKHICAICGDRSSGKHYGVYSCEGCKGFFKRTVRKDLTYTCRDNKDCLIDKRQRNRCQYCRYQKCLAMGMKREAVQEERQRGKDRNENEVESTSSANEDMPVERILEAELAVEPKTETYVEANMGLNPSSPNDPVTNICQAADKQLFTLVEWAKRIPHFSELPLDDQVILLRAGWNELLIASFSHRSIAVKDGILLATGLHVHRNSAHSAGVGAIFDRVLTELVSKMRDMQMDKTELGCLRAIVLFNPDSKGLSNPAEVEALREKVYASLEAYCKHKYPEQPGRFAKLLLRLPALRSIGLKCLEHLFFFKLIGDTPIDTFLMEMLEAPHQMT
Briefly: PPARγ-RXRα heterodimer ligand activity (luciferase reporter in PPARγ:RXRα:4ERPP/CHO-K1 cells). Format: cell-based. Particulars: luciferase induction ratio, 1 day culture, concentration showing 50% of the maximum induction ratio. How it is done:
PPARγ:RXRα:4ERPP/CHO-K1 cells described in WO03/099793 were cultured in hamF12 medium [manufactured by Life Technologies, Inc., USA] supplemented with 10% fetal bovine serum [manufactured by Life Technologies, Inc., USA], plated on a 96 well white half area plate [manufactured by Corning Coster Corporation, USA] at 1×10^4 cells/well and cultured overnight in a carbon dioxide gas incubator at 37° C.
The medium was removed from the 96 well white half area plate, 45 μl of hamF12 medium containing 0.1% fatty acid-free bovine serum albumin (BSA) and 5 μl of a test compound were added, and the cells were cultured in a carbon dioxide gas incubator at 37° C. for 1 day. The medium was removed, and 20 μl of PicaGene 7.5 (manufactured by Wako Pure Chemical Industries, Ltd.) diluted 2-fold with HBSS (HANKS' BALANCED SALT SOLUTION) [manufactured by BIO WHITTAKER, USA] was added. After stirring, the luciferase activity was measured using a 1420 ARVO Multilabel Counter [manufactured by Perkin Elmer Inc., USA].
The induction ratio was calculated from the luciferase activity of each test compound relative to the luciferase activity of the test compound non-administration group as 1. The concentration of the test compound and the induction ratio were analyzed using PRISM [manufactured by GraphPad Software, Inc., USA] and EC50 value (concentration of compound showing 50% of the maximum induction ratio) of the test compound was calculated.
A general note: In a reporter assay the amount or activity of a reporter protein is the signal.
A word on the EC50: it is the concentration giving half of the maximal effect. For `Cc1nn(C)c(Oc2cc(O[C@@H](C)C(=O)O)c(Cl)cc2Cl)c1C` [Example 1, (2S)-2-{2,4-dichloro-5-[(1,3,4-trimethyl-1H-pyrazol-5-yl)oxy]phenoxy}propionic acid], the EC50 was 24 nM.
For `C=Cc1c(C)nn(C)c1Oc1cc(O[C@@H](C)C(=O)O)c(Cl)cc1Cl` [Example 14, (2S)-2-{2,4-dichloro-5-[(1,3-dimethyl-4-vinyl-1H-pyrazol-5-yl)oxy]phenoxy}propionic acid] the value was 5 nM; for `C=Cc1c(C(F)(F)F)nn(C)c1Oc1cc(O[C@@H](C)C(=O)O)c(Cl)cc1Cl` [Example 20, (2S)-2-(2,4-dichloro-5-{[1-methyl-3-(trifluoromethyl)-4-vinyl-1H-pyrazol-5-yl]oxy}phenoxy)propionic acid], 3.7 nM; for `C[C@H](Oc1cc(Oc2c3ccccc3nn2C)c(Cl)cc1Cl)C(=O)O` [Example 30, (2S)-2-{2,4-dichloro-5-[(2-methyl-2H-indazol-3-yl)oxy]phenoxy}propionic acid], 5.8 nM.
The figure for `C[C@H](Oc1cc(Oc2c3c(nn2C)CCCC3)c(Cl)cc1Cl)C(=O)O` [Example 31, (2S)-2-{2,4-dichloro-5-[(2-methyl-4,5,6,7-tetrahydro-2H-indazol-3-yl)oxy]phenoxy}propionic acid] is 9.3 nM.
For `C=Cc1c(CCC)nn(C)c1Oc1cc(O[C@@H](C)C(=O)O)c(Cl)cc1Cl` [Example 41, (2S)-2-{2,4-dichloro-5-[(1-methyl-3-propyl-4-vinyl-1H-pyrazol-5-yl)oxy]phenoxy}propionic acid] the value was 2.4 nM; for `C=Cc1c(C(C)C)nn(C)c1Oc1cc(O[C@@H](C)C(=O)O)c(Cl)cc1Cl` [Example 43, (2S)-2-{2,4-dichloro-5-[(3-isopropyl-1-methyl-4-vinyl-1H-pyrazol-5-yl)oxy]phenoxy}propionic acid], 4.6 nM.
Regarding `Cc1c(C(F)(F)F)nn(C)c1Oc1cc(O[C@@H](C)C(=O)O)c(Cl)cc1Cl` [Example 74, (2S)-2-(2,4-dichloro-5-{[1,4-dimethyl-3-(trifluoromethyl)-1H-pyrazol-5-yl]oxy}phenoxy)propionic acid], the EC50 came out at 13 nM.
The figure for `CCc1c(C(F)(F)F)nn(C)c1Oc1cc(O[C@@H](C)C(=O)O)c(Cl)cc1Cl` [Example 76, (2S)-2-(2,4-dichloro-5-{[4-ethyl-1-methyl-3-(trifluoromethyl)-1H-pyrazol-5-yl]oxy}phenoxy)propionic acid] is 9.9 nM.
For `CCC/C=C/c1c(C)nn(C)c1Oc1cc(O[C@@H](C)C(=O)O)c(Cl)cc1Cl` [Example 89, (2S)-2-[2,4-dichloro-5-({1,3-dimethyl-4-[(1E)-1-penten-1-yl]-1H-pyrazol-5-yl}oxy)phenoxy]propionic acid], the 50% effective concentration (EC50) worked out at 2 nM.
For `Cc1nn(C)c(Oc2cc(O[C@@H](C)C(=O)O)c(Cl)cc2Cl)c1/C=N/O` [Example 104, (2S)-2-[2,4-dichloro-5-({4-[(E)-(hydroxyimino)methyl]-1,3-dimethyl-1H-pyrazol-5-yl}oxy)phenoxy]propionic acid] the value was 25 nM; for `Cc1nn(C)c(Oc2cc(O[C@@H](C)C(=O)O)c(Cl)cc2Cl)c1C#N` [Example 106, (2S)-2-{2,4-dichloro-5-[(4-cyano-1,3-dimethyl-1H-pyrazol-5-yl)oxy]phenoxy}propionic acid], 120 nM.
With `Cc1nn(C)c(Sc2cc(O[C@@H](C)C(=O)O)c(Cl)cc2Cl)c1C` [Example 115, (2S)-2-{2,4-dichloro-5-[(1,3,4-trimethyl-1H-pyrazol-5-yl)thio]phenoxy}propionic acid], the EC50 stood at 10 nM.
The figure for `CON=Cc1c(C)nn(C)c1Oc1cc(O[C@@H](C)C(=O)O)c(Cl)cc1Cl` [Example 123, (2S)-2-[2,4-dichloro-5-({4-[(methoxyimino)methyl]-1,3-dimethyl-1H-pyrazol-5-yl}oxy)phenoxy]propionic acid] is 4.1 nM; for `Cc1nn(C)c(Oc2cc(O[C@@H](C)C(=O)O)c(Cl)cc2Cl)c1C=NOCc1ccccc1` [Example 125, (2S)-2-{5-[(4-{[(benzyloxy)imino]methyl}-1,3-dimethyl-1H-pyrazol-5-yl)oxy]-2,4-dichlorophenoxy}propionic acid] it is 3.1 nM.
For `Cc1nn(C)c(Sc2cc(O[C@@H](C)C(=O)O)c(Cl)cc2Cl)c1C#N` [Example 210, (2S)-2-{2,4-dichloro-5-[(4-cyano-1,3-dimethyl-1H-pyrazol-5-yl)thio]phenoxy}propionic acid] the value was 9.9 nM; for `Cc1cc(Br)c(O[C@@H](C)C(=O)O)cc1Oc1c(C#N)c(C2CC2)nn1C` [Example 256, (2S)-2-{2-bromo-5-[(4-cyano-3-cyclopropyl-1-methyl-1H-pyrazol-5-yl)oxy]-4-methylphenoxy}propionic acid], 22 nM; for `CCNC(=O)OCCCc1c(C)nn(C)c1Oc1cc(O[C@@H](C)C(=O)O)c(Cl)cc1Cl` [Example 298, (2S)-2-(2,4-dichloro-5-{[4-(3-{[(ethylamino)carbonyl]oxy}propyl)-1,3-dimethyl-1H-pyrazol-5-yl]oxy}phenoxy)propionic acid], 17 nM.

These data come from patent US20100016396A1, “PYRAZOLE COMPOUND” (priority 2007, published 2010).
